Measurements: patent publication US11230541B2, “Heterocyclic compound” (Takeda Pharmaceutical Company Limited, priority 2017, dated 2022)

Biological target: T1, NMDA receptor composed of four subunits including 2 sets of heterodimers of NR1 and NR2B (Homo sapiens, UniProt Q13224)
T1 construct: host or cells: HEK293 (tetracycline-induced expression)
Assay: NR2B Ca2+ influx assay (FLIPR, Fluo-4) in HEK293 cells expressing human GRIN1 and GRIN2B
Format: cell-based
Details: HEK293, 10 μM final compound concentration, glutamic acid/glycine-induced Ca2+ influx, read-out: inhibitory rate (10 μM compound concentration)
How it was run: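 Tetracycline-induced (2 h) HEK293 cells expressing human GRIN1/GRIN2B, Fluo-4-loaded, were preincubated 15 min at room temperature with compound at 10 μM final. FLIPR recorded Ca2+ influx every 3 s for 5 min after glutamate/glycine addition (30 μM in added buffer); inhibition from cumulative fluorescence relative to agonist-free wells.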

T1 sequence (Q13224 27-1484, other chains not shown): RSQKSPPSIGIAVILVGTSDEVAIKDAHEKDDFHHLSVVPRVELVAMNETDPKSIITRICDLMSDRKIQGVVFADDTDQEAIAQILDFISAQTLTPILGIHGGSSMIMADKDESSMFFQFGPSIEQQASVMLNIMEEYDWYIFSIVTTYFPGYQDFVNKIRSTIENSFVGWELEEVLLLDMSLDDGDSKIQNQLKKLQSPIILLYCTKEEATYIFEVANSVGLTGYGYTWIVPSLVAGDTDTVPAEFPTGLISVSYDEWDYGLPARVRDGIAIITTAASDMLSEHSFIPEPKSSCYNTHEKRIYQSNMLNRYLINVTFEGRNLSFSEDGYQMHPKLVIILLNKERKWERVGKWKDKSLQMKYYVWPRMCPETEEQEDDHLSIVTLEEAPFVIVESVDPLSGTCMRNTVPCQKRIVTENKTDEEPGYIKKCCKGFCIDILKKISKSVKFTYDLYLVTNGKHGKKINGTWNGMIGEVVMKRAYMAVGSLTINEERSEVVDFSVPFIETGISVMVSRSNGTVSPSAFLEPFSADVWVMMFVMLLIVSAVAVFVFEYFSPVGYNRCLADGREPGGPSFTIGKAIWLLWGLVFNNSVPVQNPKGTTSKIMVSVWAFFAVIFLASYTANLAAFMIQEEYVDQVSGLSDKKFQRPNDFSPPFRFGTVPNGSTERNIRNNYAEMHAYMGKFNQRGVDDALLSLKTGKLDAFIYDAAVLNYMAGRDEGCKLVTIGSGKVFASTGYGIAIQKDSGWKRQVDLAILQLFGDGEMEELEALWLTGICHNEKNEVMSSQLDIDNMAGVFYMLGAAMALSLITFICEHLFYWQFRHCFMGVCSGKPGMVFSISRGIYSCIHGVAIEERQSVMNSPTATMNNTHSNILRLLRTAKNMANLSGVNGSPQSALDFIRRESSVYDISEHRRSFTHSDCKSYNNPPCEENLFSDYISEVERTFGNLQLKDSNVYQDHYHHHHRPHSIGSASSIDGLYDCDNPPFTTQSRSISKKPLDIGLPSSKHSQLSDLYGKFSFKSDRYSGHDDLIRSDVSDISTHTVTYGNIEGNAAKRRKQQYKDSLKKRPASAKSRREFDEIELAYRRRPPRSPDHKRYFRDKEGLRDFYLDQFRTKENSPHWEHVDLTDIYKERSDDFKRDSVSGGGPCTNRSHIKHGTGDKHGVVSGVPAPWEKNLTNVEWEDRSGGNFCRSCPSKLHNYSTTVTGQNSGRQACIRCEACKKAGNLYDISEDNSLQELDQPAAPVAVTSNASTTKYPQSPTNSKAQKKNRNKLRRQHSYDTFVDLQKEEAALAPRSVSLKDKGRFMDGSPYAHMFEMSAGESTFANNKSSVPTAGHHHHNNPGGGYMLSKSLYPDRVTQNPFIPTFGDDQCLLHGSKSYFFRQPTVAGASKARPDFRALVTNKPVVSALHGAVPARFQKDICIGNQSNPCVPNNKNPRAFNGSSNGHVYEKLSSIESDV

Structure (SMILES) | inhibition at 10 µM
Cc1ccc2[nH]nnc2c1CNC(=O)c1cc(F)c(Cl)c(F)c1 [Example 198, 4-chloro-3,5-difluoro-N-((5-methyl-1H-benzotriazol-4-yl)methyl)benzamide] | 90%
Cc1ccc2[nH]nnc2c1CNC(=O)c1ccc(C(F)(F)F)c(F)c1 [Example 199, 3-fluoro-N-((5-methyl-1H-benzotriazol-4-yl)methyl)-4-(trifluoromethyl)-benzamide] | 92%
Cc1ccc(C(=O)NCc2c(C)ccc3[nH]nnc23)cc1F [Example 200, 3-fluoro-4-methyl-N-((5-methyl-1H-benzotriazol-4-yl)methyl)benzamide] | 85%
COc1ccc(C(=O)NCc2c(C)ccc3[nH]nnc23)cc1F [Example 201, 3-fluoro-4-methoxy-N-((5-methyl-1H-benzotriazol-4-yl)methyl)benzamide] | 92%
Cc1ccc2[nH]nnc2c1CNC(=O)c1cc(F)c(F)c(Cl)c1 [Example 202, 3-chloro-4,5-difluoro-N-((5-methyl-1H-benzotriazol-4-yl)methyl)benzamide] | 83%
O=C(NCc1c(C2CC2)ccc2[nH]nnc12)c1ccc(OC(F)(F)F)cc1 [Example 203, N-((5-cyclopropyl-1H-benzotriazol-4-yl)methyl)-4-(trifluoromethoxy)-benzamide] | 93%
COc1c(F)cc(C(=O)NCc2c(C3CC3)ccc3[nH]nnc23)cc1F [Example 204, N-((5-cyclopropyl-1H-benzotriazol-4-yl)methyl)-3,5-difluoro-4-methoxybenzamide] | 93%
CCc1ccc2[nH]nnc2c1CNC(=O)c1cc(F)c(C(F)(F)F)c(F)c1 [Example 205, N-((5-ethyl-1H-benzotriazol-4-yl)methyl)-3,5-difluoro-4-(trifluoromethyl)-benzamide] | 87%
CCc1ccc2[nH]nnc2c1CNC(=O)c1cc(F)c(OC)c(F)c1 [Example 206, N-((5-ethyl-1H-benzotriazol-4-yl)methyl)-3,5-difluoro-4-methoxybenzamide] | 95%
COc1ccc2[nH]nnc2c1CNC(=O)c1cc(F)c(OC)c(F)c1 [Example 207, 3,5-difluoro-4-methoxy-N-((5-methoxy-1H-benzotriazol-4-yl)methyl)benzamide] | 98%
CCc1ccc2[nH]nnc2c1CNC(=O)c1cnc(OC)c(F)c1 [Example 208, N-((5-ethyl-1H-benzotriazol-4-yl)methyl)-5-fluoro-6-methoxynicotinamide] | 85%

Now from value to compound:

inhibition at 10 µM | Structure (SMILES)
94% | CCc1ccc2[nH]nnc2c1CNC(=O)c1ccc(OC(F)(F)F)cc1 [Example 209, N-((5-ethyl-1H-benzotriazol-4-yl)methyl)-4-(trifluoromethoxy)-benzamide]
90% | COc1c(F)cc(C(=O)NCc2c(F)ccc3ncn(C)c23)cc1F [Example 210, 3,5-difluoro-N-((6-fluoro-1-methyl-1H-benzimidazol-7-yl)methyl)-4-methoxybenzamide]
95% | COc1c(F)cc(C(=O)NCc2cccc3[nH]nnc23)cc1F [Example 211, N-(1H-benzotriazol-4-ylmethyl)-3,5-difluoro-4-methoxybenzamide]
93% | O=C(NCc1c(C2CC2)ccc2[nH]nnc12)c1ccc(OC(F)F)c(F)c1 [Example 212, N-((5-cyclopropyl-1H-benzotriazol-4-yl)methyl)-4-(difluoromethoxy)-3-fluorobenzamide]
98% | COc1ccc2[nH]nnc2c1CNC(=O)c1ccc(OC(F)(F)F)cc1 [Example 213, N-((5-methoxy-1H-benzotriazol-4-yl)methyl)-4-(trifluoromethoxy)-benzamide]
86% | COc1ccc2nc(C)n(C)c2c1CNC(=O)c1cc(F)c(OC)c(F)c1 [Example 214, 3,5-difluoro-4-methoxy-N-((6-methoxy-1,2-dimethyl-lH-benzimidazol-7-yl)methyl)benzamide]
